These results are taken from US20250066372A1, “HETEROCYCLIC COMPOUNDS, COMPOSITIONS THEREOF, AND METHODS OF TREATMENT THEREWITH” (BeiGene, Ltd., priority 2022, published 2025).

For this experiment, the target named is CDK4/Cyclin D1 (Homo sapiens (Human), UniProt P11802). As to the kind of experiment: CDK4/Cyclin D1 biochemical assay (TR-FRET). The settings on record: 1 mM ATP, 0.15 μM Rb (Ser780)-biotin substrate. For orientation: TR-FRET usually uses a lanthanide donor and a delayed reading to cut background.
CDK4/Cyclin D1, sequence (P11802 whole entry): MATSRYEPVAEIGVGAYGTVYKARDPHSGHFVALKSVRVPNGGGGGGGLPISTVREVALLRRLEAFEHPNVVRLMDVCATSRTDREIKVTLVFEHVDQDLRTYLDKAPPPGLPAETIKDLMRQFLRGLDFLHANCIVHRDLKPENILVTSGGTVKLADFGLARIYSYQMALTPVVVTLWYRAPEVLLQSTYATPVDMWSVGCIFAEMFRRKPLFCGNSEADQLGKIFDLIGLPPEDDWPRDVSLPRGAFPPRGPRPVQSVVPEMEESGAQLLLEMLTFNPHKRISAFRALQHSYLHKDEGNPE
CDK4/Cyclin D1, sequence (P24385 whole entry partner): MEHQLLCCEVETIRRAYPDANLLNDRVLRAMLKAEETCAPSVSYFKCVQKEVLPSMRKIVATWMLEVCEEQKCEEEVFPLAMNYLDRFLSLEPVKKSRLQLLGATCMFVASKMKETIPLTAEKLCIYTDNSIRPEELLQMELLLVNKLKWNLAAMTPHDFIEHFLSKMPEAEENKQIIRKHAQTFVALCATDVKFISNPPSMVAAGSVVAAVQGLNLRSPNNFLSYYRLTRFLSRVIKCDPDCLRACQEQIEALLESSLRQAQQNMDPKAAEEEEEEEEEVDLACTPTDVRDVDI
Regarding `CN(C)C(=O)c1cc2cnc(N[C@@H]3CCOC[C@H]3O)nc2n1C1CCCC1` [Example 1, 7-cyclopentyl-2-(((3S,4R)-3-hydroxytetrahydro-2H-pyran-4-yl)amino)-N,N-dimethyl-7H-pyrrolo[2,3-d]pyrimidine-6-carboxamide], it took 68 nM to reach half-maximal inhibition (IC50).

On to `CC(=O)c1c(C)c2cnc(N[C@@H]3CCOC[C@H]3O)nc2n(C2CCCC2)c1=O` [Example 2 in WO2020212865, reference compound], for which 8.8 nM corresponded to half-maximal inhibition (IC50).

As to `Cc1ccc(-n2c(C(=O)N(C)C)cc3cnc(N[C@@H]4CCOC[C@H]4O)nc32)cc1` [Example 2, 2-(((3S,4R)-3-hydroxytetrahydro-2H-pyran-4-yl)amino)-N,N-dimethyl-7-(p-tolyl)-7H-pyrrolo[2,3-d]pyrimidine-6-carboxamide], the midpoint of inhibition, the IC50, lay at 360 nM. For `CN(C)Cc1ccc(-n2c(C(=O)N(C)C)cc3cnc(N[C@@H]4CCOC[C@H]4O)nc32)cc1` [Example 3, 7-(4-((dimethylamino)methyl)phenyl)-2-(((3S,4R)-3-hydroxytetrahydro-2H-pyran-4-yl)amino)-N,N-dimethyl-7H-pyrrolo[2,3-d]pyrimidine-6-carboxamide] the value was 72 nM. For `CN(C)Cc1ccc(-n2c(C(=O)N(C)C)cc3cnc(N[C@@H]4CCOC[C@H]4O)nc32)cc1C1CC1` [Example 4, 7-(3-cyclopropyl-4-((dimethylamino)methyl)phenyl)-2-(((3S,4R)-3-hydroxytetrahydro-2H-pyran-4-yl)amino)-N,N-dimethyl-7H-pyrrolo[2,3-d]pyrimidine-6-carboxamide] the value was 9.7 nM; for `CN(C)Cc1ccc(-n2c(C(=O)N(C)C)cc3cnc(N[C@@H]4CCOC[C@H]4O)nc32)cc1F` [Example 5, 7-(4-((dimethylamino)methyl)-3-fluorophenyl)-2-(((3S,4R)-3-hydroxytetrahydro-2H-pyran-4-yl)amino)-N,N-dimethyl-7H-pyrrolo[2,3-d]pyrimidine-6-carboxamide], 51 nM; for `CN(C)Cc1ccc(-n2c(C(=O)N(C)C)cc3cnc(N[C@@H]4CCOC[C@H]4O)nc32)cc1Cl` [Example 6, 7-(3-chloro-4-((dimethylamino)methyl)phenyl)-2-(((3S,4R)-3-hydroxytetrahydro-2H-pyran-4-yl)amino)-N,N-dimethyl-7H-pyrrolo[2,3-d]pyrimidine-6-carboxamide], 22 nM. For `CN(C)Cc1ccc(-n2c(C(=O)N(C)C)cc3cnc(N[C@@H]4CCOC[C@H]4O)nc32)cc1C(F)(F)F` [Example 7, 7-(4-((dimethylamino)methyl)-3-(trifluoromethyl)phenyl)-2-(((3S,4R)-3-hydroxytetrahydro-2H-pyran-4-yl)amino)-N,N-dimethyl-7H-pyrrolo[2,3-d]pyrimidine-6-carboxamide] the value was 5.9 nM. In the case of `CN1CCc2cc(-n3c(C(=O)N(C)C)cc4cnc(N[C@@H]5CCOC[C@H]5O)nc43)ccc2C1` [Example 8, 2-(((3S,4R)-3-hydroxytetrahydro-2H-pyran-4-yl)amino)-N,N-dimethyl-7-(2-methyl-1,2,3,4-tetrahydroisoquinolin-6-yl)-7H-pyrrolo[2,3-d]pyrimidine-6-carboxamide], the IC50 (in general, the concentration needed to halve the response being measured) was determined as 143 nM.

`CN(C)C(=O)c1cc2cnc(N[C@@H]3CCOC[C@H]3O)nc2n1-c1ccc2c(c1)CCCC2N(C)C` (stereo partly drawn) [Example 9, 7-(5-(dimethylamino)-5,6,7,8-tetrahydronaphthalen-2-yl)-2-(((3S,4R)-3-hydroxytetrahydro-2H-pyran-4-yl)amino)-N,N-dimethyl-7H-pyrrolo[2,3-d]pyrimidine-6-carboxamide] gave an IC50 of 12 nM. This IC50 is about 12-fold lower than that of the molecule before. As for `CN(C)C(=O)c1cc2cnc(N[C@@H]3CCOC[C@H]3O)nc2n1-c1ccc2c(c1)C1(CCC2N(C)C)CC1` (stereo partly drawn) [Example 10, 7-(4′-(dimethylamino)-3′,4′-dihydro-2′H-spiro[cyclopropane-1,1′-naphthalen]-7′-yl)-2-(((3S,4R)-3-hydroxytetrahydro-2H-pyran-4-yl)amino)-N,N-dimethyl-7H-pyrrolo[2,3-d]pyrimidine-6-carboxamide], the IC50 was found to be 13 nM. In the case of `CN(C)C(=O)c1cc2cnc(N[C@@H]3CCOC[C@H]3O)nc2n1-c1ccc2c(c1)C(F)(F)CCC2N(C)C` (stereo partly drawn) [Example 11, 7-(5-(dimethylamino)-8,8-difluoro-5,6,7,8-tetrahydronaphthalen-2-yl)-2-(((3S,4R)-3-hydroxytetrahydro-2H-pyran-4-yl)amino)-N,N-dimethyl-7H-pyrrolo[2,3-d]pyrimidine-6-carboxamide], the half-inhibitory concentration (IC50) was 2.1 nM. For `CN(C)C(=O)c1cc2cnc(N[C@@H]3CCOC[C@H]3O)nc2n1-c1ccc2c(c1)CCC2N(C)C` (stereo partly drawn) [Example 12, 7-(1-(dimethylamino)-2,3-dihydro-1H-inden-5-yl)-2-(((3S,4R)-3-hydroxytetrahydro-2H-pyran-4-yl)amino)-N,N-dimethyl-7H-pyrrolo[2,3-d]pyrimidine-6-carboxamide] the value was 42 nM; for `CN(C)C(=O)c1cc2cnc(N[C@@H]3CCOC[C@H]3O)nc2n1-c1ccc2c(c1)C1(CC1)CC2N(C)C` (stereo partly drawn) [Example 13, 7-(3′-(dimethylamino)-2′,3′-dihydrospiro[cyclopropane-1,1′-inden]-6′-yl)-2-(((3S,4R)-3-hydroxytetrahydro-2H-pyran-4-yl)amino)-N,N-dimethyl-7H-pyrrolo[2,3-d]pyrimidine-6-carboxamide], 38 nM; for `CC(C)n1c(C(C)(C)O)nc2c(F)cc(-c3nc(N[C@@H]4CCOC[C@H]4O)ncc3Cl)cc21` [Example A94 in WO2019207463, reference compound], 5 nM.
